Source: paper PMC11096480, “The road to evolution of ProTx2: how to be a subtype-specific inhibition of human Nav1.7” (Frontiers in Pharmacology, 2024)
Entries after “also recorded” stand apart in the source; their conditions may differ. Where no end group is shown, it is not given here.

How the values were obtained:
[1] = tested on: KM mice; test: formalin-induced paw-licking test; type: in vivo
Method: Male KM mice (18–22 g) were obtained from Liaoning Changsheng Biotechnology Co., Ltd. The mice were acclimated for 1 week at 18°C–22°C and 50%–70% humidity, following approval by the Animal Ethics Committee of Shenyang Pharmaceutical University, China. The pain response was assessed using a formalin-induced paw-licking test. The saline solution, 5 mg/kg morphine, commonly used analgesic medications in clinical practice, or 0.75 mg/kg peptides, ProTx II, and its mutants, were injected via the tail vein to relief the pain. After half an hour, a 20-μL 5% (v/v) formalin solution was administered as an activator to induce pain in mice (n = 10) ([Miranda et al., 2007]). The cumulative pain behavior that occurred 0–5 min (phase I, an immediate nociceptive phase) and 20–60 min (phase II, a later inflammatory phase) after injection was recorded for 60 min at 5 min intervals in individual cages to measure the total licking time in phases I and II, respectively.

[2] = tested on: KM mice; test: forced swimming test; type: in vivo
Method: Additionally, a forced swimming test measured endurance following 7 days of treatment with ProTx2 or its mutants ([Porsolt et al., 1977]; [Galeotti et al., 2002]; [Xu et al., 2017]). Fifty male KM mice were randomly divided into five groups with 10 mice in each group. The groups were classified as normal saline control, ProTx2, R13A, R13D, and K27Y.
Following a 7-day treatment regimen, mice received injections of ProTx2 or its mutants and underwent forced swimming tests 20 min after the final treatment.

[3] = tested on: C2C12 cells; test: C2C12 cell viability (CCK8 assay); type: cell-based, mouse; details: CCK8, 450 nm, 18-h exposure, 0-160 μg/mL, serum-free, n = 5; R13D effect particularly between 100 and 160 μg/mL; relative to wild-type peptide
Method: (§1) Nav1.4-CHO cells and Nav1.7-CHO cells were maintained in Iscove’s modified Dulbecco’s medium (Gibco) supplemented with 10% (v/v) fetal bovine serum (FBS) and 200 μg/mL G418 (Sigma). All cells were cultured at 37 °C and 5% CO2 atmosphere. Mouse myoblasts C2C12, obtained from the Stem Cell Bank of The Chinese Academy of Sciences, were grown in Dulbecco’s modified Eagle‘s medium (DMEM) enriched with 10% heat-inactivated FBS, 2 mM L glutamine, 100 U/mL of penicillin, and 100 μg/mL of streptomycin. The C2C12 cells typically reached confluence in 3–5 days in 75-T flasks. For passaging, monolayers were treated with 0.25% trypsin for 3–5 min, rinsed twice with DMEM, and sub-cultured at a ratio of 1:4. Similarly, the Chinese hamster ovary (CHO) cells were cultured in IMDM medium supplemented with 10% fetal bovine serum, 1% penicillin/streptomycin, 100 μM hypoxanthine, and 16 μM thymidine. When 90% confluence was achieved, cells were separated by 0.25% trypsin EDTA, and patch clamp electrophysiology experiments were carried out.
C2C12 cell viability in response to ProTx2 or it mutants was evaluated using the CCK8 assay ([Pan et al., 2019]; [Ge et al., 2020]). […] After 18 h of treatment, cell viability was assessed by measuring the absorbance at 450 nm, following the addition of the CCK-8 reagent.

[4] = tested on: hNav1.7; test: whole-cell patch clamp, CHO-Nav1.7 sodium current; type: cell-based, human
Method: as §1
(§2) Automatic electrophysiological platforms (NPC-1 and Port-a-Patch systems, […], Munich, Germany) and EPC10 amplifiers (HEKA Elektronik, Lambrecht, Germany) assessed the effects of recombinant ProTx2 and its mutants on CHO-Nav1.4 and CHO-Nav1.7. […]

[5] = tested on: hNav1.4; test: whole-cell patch clamp, CHO-Nav1.4 sodium current; type: cell-based, human
Method: as §1, §2

[6] = target: human voltage-gated sodium channel Nav1.4, on CHO cells (human) (UniProt P35499)
UniProt P35499, sequence (P35499 whole entry): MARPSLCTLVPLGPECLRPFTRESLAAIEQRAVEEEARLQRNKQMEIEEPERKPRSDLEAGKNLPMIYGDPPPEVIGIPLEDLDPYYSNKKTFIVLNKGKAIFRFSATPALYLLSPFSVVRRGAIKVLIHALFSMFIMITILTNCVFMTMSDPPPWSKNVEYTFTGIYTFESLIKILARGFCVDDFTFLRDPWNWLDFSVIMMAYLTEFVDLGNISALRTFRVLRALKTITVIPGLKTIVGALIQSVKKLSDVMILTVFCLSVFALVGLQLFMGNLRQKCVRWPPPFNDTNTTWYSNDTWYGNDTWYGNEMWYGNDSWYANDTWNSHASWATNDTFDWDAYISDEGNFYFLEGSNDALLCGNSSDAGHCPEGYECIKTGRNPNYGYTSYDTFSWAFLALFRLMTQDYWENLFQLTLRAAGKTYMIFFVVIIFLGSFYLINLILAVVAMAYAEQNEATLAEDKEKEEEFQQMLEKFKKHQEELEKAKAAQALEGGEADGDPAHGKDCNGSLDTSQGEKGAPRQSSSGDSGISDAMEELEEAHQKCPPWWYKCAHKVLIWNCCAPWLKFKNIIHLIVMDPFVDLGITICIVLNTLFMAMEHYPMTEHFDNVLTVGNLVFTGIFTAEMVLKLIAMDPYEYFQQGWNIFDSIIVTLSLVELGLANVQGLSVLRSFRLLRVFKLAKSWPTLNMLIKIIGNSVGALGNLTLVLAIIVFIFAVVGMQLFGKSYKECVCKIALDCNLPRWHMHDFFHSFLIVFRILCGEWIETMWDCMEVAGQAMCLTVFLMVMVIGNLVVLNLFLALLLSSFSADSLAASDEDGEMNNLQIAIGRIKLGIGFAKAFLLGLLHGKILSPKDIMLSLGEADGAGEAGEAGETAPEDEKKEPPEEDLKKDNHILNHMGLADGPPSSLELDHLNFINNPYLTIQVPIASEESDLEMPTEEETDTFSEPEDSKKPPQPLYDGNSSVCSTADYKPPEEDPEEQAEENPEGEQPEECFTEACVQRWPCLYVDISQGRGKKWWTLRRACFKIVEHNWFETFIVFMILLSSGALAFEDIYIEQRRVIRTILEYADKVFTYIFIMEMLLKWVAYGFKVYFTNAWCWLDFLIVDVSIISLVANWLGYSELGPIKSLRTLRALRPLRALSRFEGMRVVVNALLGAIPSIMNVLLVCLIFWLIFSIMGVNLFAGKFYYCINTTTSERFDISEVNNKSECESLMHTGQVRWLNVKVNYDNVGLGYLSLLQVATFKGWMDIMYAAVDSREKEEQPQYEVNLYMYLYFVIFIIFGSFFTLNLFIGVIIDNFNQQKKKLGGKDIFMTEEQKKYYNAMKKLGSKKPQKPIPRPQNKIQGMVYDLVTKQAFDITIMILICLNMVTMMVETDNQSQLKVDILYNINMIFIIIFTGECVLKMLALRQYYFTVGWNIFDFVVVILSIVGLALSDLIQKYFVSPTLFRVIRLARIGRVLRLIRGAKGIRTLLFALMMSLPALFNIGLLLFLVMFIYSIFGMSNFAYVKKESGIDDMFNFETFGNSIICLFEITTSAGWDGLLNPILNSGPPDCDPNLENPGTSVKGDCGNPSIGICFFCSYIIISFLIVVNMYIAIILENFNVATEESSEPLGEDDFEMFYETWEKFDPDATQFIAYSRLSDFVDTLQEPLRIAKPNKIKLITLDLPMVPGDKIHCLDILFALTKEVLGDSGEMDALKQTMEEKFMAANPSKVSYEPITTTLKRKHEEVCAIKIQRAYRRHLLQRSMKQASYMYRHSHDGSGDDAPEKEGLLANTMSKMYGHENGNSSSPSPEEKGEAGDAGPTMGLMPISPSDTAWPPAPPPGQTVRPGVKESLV

[7] = target: human voltage-gated sodium channel Nav1.7, on CHO cells (human) (UniProt Q15858)
UniProt Q15858, sequence (Q15858 whole entry): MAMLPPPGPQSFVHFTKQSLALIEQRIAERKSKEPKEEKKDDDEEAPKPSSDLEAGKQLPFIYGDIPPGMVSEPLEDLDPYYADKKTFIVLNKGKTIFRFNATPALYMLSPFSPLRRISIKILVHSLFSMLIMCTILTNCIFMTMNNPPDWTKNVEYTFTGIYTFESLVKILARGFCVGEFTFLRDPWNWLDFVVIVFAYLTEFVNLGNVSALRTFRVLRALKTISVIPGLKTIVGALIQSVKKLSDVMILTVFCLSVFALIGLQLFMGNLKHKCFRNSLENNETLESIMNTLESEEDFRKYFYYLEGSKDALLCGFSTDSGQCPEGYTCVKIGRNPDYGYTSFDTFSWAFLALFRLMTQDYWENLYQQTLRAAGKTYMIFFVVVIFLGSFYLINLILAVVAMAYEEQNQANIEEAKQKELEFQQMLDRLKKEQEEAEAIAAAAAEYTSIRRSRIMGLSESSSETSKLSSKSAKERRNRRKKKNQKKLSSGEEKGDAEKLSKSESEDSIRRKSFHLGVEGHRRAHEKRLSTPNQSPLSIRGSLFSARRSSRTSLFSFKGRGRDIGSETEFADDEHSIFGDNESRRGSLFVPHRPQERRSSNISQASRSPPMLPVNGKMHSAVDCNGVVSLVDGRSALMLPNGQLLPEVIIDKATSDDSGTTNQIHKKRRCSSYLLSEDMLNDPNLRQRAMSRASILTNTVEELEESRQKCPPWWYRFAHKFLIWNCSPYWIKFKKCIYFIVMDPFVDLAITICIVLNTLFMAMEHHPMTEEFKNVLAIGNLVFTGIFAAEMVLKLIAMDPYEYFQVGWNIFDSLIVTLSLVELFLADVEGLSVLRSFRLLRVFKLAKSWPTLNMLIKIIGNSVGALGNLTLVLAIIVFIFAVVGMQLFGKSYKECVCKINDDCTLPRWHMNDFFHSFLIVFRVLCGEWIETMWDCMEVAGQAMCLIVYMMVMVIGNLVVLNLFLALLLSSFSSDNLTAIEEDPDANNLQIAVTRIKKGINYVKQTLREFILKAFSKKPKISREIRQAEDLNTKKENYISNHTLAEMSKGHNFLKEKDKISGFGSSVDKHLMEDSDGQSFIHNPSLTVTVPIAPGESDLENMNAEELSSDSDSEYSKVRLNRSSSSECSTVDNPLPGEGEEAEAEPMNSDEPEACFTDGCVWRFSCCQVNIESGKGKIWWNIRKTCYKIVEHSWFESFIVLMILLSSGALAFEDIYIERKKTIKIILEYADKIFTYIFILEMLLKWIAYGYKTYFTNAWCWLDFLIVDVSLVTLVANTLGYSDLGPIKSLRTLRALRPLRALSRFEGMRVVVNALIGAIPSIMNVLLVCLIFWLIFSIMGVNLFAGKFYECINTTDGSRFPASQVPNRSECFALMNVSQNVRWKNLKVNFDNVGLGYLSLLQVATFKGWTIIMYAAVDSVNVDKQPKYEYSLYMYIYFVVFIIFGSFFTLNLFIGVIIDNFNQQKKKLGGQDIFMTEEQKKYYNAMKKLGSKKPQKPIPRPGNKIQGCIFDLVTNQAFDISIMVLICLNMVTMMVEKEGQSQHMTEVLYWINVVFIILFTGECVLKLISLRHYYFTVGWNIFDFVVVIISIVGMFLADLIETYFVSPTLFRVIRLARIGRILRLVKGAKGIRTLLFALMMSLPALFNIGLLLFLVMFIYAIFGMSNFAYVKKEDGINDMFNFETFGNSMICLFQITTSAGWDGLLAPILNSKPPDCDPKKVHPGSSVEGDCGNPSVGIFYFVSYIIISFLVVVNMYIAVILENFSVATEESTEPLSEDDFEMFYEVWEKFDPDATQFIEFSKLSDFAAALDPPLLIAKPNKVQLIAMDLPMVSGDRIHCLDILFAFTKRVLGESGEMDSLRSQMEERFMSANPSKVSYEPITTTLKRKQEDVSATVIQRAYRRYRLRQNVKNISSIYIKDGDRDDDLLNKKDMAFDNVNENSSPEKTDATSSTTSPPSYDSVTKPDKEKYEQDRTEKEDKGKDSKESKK

Compound: R13D: single-point mutation (R13D) in ProTx2 (YCQKWMWTCDSEDKCCEGMVCRLWCKKKLW; ends and bridges not checked; cysteine pairing not given here)
- analgesic effect ([1]; formalin model, 0.75 mg/kg peptide, tail vein, versus wild-type ProTx2, 0.75 mg/kg): maintained the analgesic effect in mice; also recorded: significantly alleviated pain in both the acute and inflammatory phases, outperforming the wild-type ProTx2
- total licking time, phase I ([1]; phase I (0–5 min), 0.75 mg/kg peptide, tail vein, half an hour before 20 μL 5% formalin, male KM mice, n = 10): 33.5 ± 1.6 s
- total licking time, phase II ([1]; phase II (20–60 min), 0.75 mg/kg peptide, tail vein, half an hour before 20 μL 5% formalin, male KM mice, n = 10): 128.0 ± 5.2 s
- swimming endurance / muscular toxicity ([2]; 7-day treatment, test 20 min after final treatment, male KM mice, n = 10, versus wild-type ProTx2): significantly prolonged endurance compared to the wild-type ProTx2 group, suggesting reduced muscular toxicity (p < 0.05)
- muscle toxicity ([2]; summary in abstract, compared with ProTx2): dramatically reducing its muscle toxicity compared with ProTx2
- C2C12 cellular viability [3]: significantly improved cellular viability in a concentration-dependent manner, particularly between 100 and 160 μg/mL
- peak sodium current amplitude, hNav1.7 ([4]; 1 μM, normalized Na+ peak current at −30 mV, CHO cells, whole-cell, holding −80 mV, 22°C, 10 cells per set, R13D vs ProTx2 p < 0.01): 68%
- inhibition of hNav1.7 current ([4]; CHO-Nav1.7, whole-cell, relative to ProTx2 for R13D): pronouncedly intensified inhibition of hNav1.7
- peak sodium current amplitude, hNav1.4 ([5]; 1 μM, normalized Na+ peak current at −30 mV, CHO cells, whole-cell, holding −80 mV, 22°C, 10 cells per set): 59%
- inhibition of hNav1.4 current ([5]; CHO-Nav1.4, whole-cell, relative to ProTx2 for R13D): marginally diminished effect on hNav1.4

Compound: ProTx2 mutant R13D, recombinant (from UniProt P83476 1-30) (peptide)
- peak sodium current amplitude (normalized) of hNav1.4-CHO cells, whole-cell patch clamp, peptide at 1 μM [6]: 59%
- peak sodium current amplitude (normalized) of hNav1.7-CHO cells, whole-cell patch clamp, peptide at 1 μM [7]: 68%

Compound: CN1CC[C@]23c4c5ccc(O)c4O[C@H]2[C@@H](O)C=C[C@H]3[C@H]1C5 [morphine, reference compound]
- total licking time, phase I (morphine) ([1]; mouse, in vivo, 5 mg/kg): 7.5 ± 1.6 s
- total licking time, phase II (morphine) ([1]; mouse, in vivo, 5 mg/kg): 42.1 ± 6.1 s

Compound: ProTx2 (Protoxin-II), wild type, recombinant (from UniProt P83476 1-30) (peptide)
- peak sodium current amplitude (normalized) of hNav1.4-CHO cells, whole-cell patch clamp, peptide at 1 μM [6]: 50%
- peak sodium current amplitude (normalized) of hNav1.7-CHO cells, whole-cell patch clamp, peptide at 1 μM [7]: 82%
